In publication PMC9909315, “SY-707, an ALK/FAK/IGF1R inhibitor, suppresses growth and metastasis of breast cancer cells” (Acta Biochimica et Biophysica Sinica, 2022):

Assays:
FAK = FAK (Homo sapiens, UniProt Q05397); test: HTRF kinase enzyme assay; type: biochemical; conditions: ATP at Km
Description: Homogeneous time-resolved fluorescence (HTRF) assay was performed to analyze kinase enzyme activity and compound potency using HTRF ® KinEASE ^TM-TK kit (Cisbio Bioassays, Shanghai, China). […] The resulted solutions were briefly mixed, centrifuged and incubated for 5 min. Finally, 2.5 μL of 4× ATP/TK peptide (ATP at K m for each kinase) solution was added to the reaction system to initiate the reaction. The enzymatic reaction was carried out for 60-120 min at 23°C, then terminated by addition of 5 μL of detection solution containing TK antibody-cryptate and 5 μL of Streptravidin-XL-665. The mixture was incubated for additional 1 h at 23°C. The fluorescent signals were measured with an EnVision multilabel plate reader (PerkinElmer). IC 50 values of the compounds were calculated using the GraFit software (Version 6.0) and presented as the mean of three independent experiments performed in duplicate.

ACK = ACK (Homo sapiens, UniProt Q07912); test: HTRF kinase enzyme assay; type: biochemical; conditions: ATP at Km
Description: (§1) Homogeneous time-resolved fluorescence (HTRF) assay was performed to analyze kinase enzyme activity and compound potency using HTRF ® KinEASE ^TM-TK kit (Cisbio Bioassays, Shanghai, China). Compound SY-707 was serially diluted by 3 folds from 1 mM stock solution in DMSO, and 4 μL of the diluted solution of the compounds was added to 96 μL of reaction buffer (50 mM HEPES, pH 7.0, 0.1 mM Na 3VO 4, 0.01% BAS, 5 mM MgCl 2, 1 mM DTT), then 2.5 μL of 4× compound solution and 5 μL of 2× kinases solution were added to a 384-well plate (OptiPlate-384; PerkinElmer, Wellesley, USA ). The resulted solutions were briefly mixed, centrifuged and incubated for 5 min. Finally, 2.5 μL of 4× ATP/TK peptide (ATP at K m for each kinase) solution was added to the reaction system to initiate the reaction. The enzymatic reaction was carried out for 60-120 min at 23°C, then terminated by addition of 5 μL of detection solution containing TK antibody-cryptate and 5 μL of Streptravidin-XL-665. The mixture was incubated for additional 1 h at 23°C. The fluorescent signals were measured with an EnVision multilabel plate reader (PerkinElmer). IC 50 values of the compounds were calculated using the GraFit software (Version 6.0) and presented as the mean of three independent experiments performed in duplicate.

ALK = ALK (Homo sapiens, UniProt Q9UM73); test: HTRF kinase enzyme assay; type: biochemical; conditions: ATP at Km
Description: as §1

FER = FER (Homo sapiens, UniProt P16591); test: HTRF kinase enzyme assay; type: biochemical; conditions: ATP at Km
Description: as §1

FES = FES (Homo sapiens, UniProt P07332); test: HTRF kinase enzyme assay; type: biochemical; conditions: ATP at Km
Description: as §1

IGF1R = IGF1R (Homo sapiens, UniProt P08069); test: HTRF kinase enzyme assay; type: biochemical; conditions: ATP at Km
Description: as §1

IRK = IRK (Homo sapiens, UniProt P06213); test: HTRF kinase enzyme assay; type: biochemical; conditions: ATP at Km
Description: as §1

LTK = LTK (Homo sapiens, UniProt P29376); test: HTRF kinase enzyme assay; type: biochemical; conditions: ATP at Km
Description: as §1

PYK2 = PYK2 (Homo sapiens, UniProt Q14289); test: HTRF kinase enzyme assay; type: biochemical; conditions: ATP at Km
Description: as §1

MCF-7 cells = test: Cell adhesion assay; type: cell-based; conditions: MCF-7, 24 h pretreatment, dose-dependent
Description: (§2) MCF-7 and T47D cells were plated in 6-well plates and pretreated with different concentrations of PF-562271 or SY-707 for 24 h, and then trypsinized, washed and resuspended in culture medium. Cells were added into each well and incubated for 6 h. Non-adherent cells were collected by washing with PBS and counted.

T47D cells = test: Cell adhesion assay; type: cell-based; conditions: 24 h pretreatment, dose-dependent
Description: as §2

[1] = system: phosphorylation of FAK at Tyr397; test: Western blot of FAK phosphorylation in T47D cells; type: cell-based; conditions: 1 h treatment
Description: Equal amounts of cell lysates were loaded onto 10% SDS-PAGE gel and separated by electrophoresis. Separated proteins were then electro-transferred onto polyvinylidene fluoride (PVDF) membranes (Millipore, Bedford, USA). After being blocked with Tris-buffered saline containing 0.1% Tween-20 (TBST) and 5% bovine serum albumin (BSA), the membranes were incubated with primary antibodies at room temperature for 2 hours or at 4°C, then washed with TBST, followed by treatment with horseradish peroxidase (HRP)-conjugated goat anti-rabbit IgG secondary antibody at room temperature for another 1 h. The targeted protein bands were visualized using an enhanced chemiluminescence (ECL) plus system (Thermo Fisher Scientific). Primary antibodies against phospho-FAK (3283, 1:1000 dilution), phospho-ERK (4377, 1:2000 dilution), phospho-AKT (4060, 1:2000 dilution), FAK (3285, 1:1000 dilution), AKT (6703, 1:1000 dilution) and β-Actin (5125, 1:10,0000 dilution) were purchased from Cell Signaling Technology (Beverly, USA) and the HRP-conjugated goat anti-rabbit IgG (ZDR-5306, 1:10,000 dilution) was purchased from Jackson (West Grove, USA ).
Cells were cultured in 6-well plates and treated with the indicated concentrations of SY-707 for 1 h before stimulation with or without 100 ng/mL IGF1 for 10 min. Control cells received the drug vehicle with 0.1% DMSO. […]

[2] = system: phosphorylation of Pyk2 at Tyr402; test: Western blot of Pyk2 phosphorylation in MCF-7 cells; type: cell-based; conditions: MCF-7, 1 h treatment
Description: Equal amounts of cell lysates were loaded onto 10% SDS-PAGE gel and separated by electrophoresis. Separated proteins were then electro-transferred onto polyvinylidene fluoride (PVDF) membranes (Millipore, Bedford, USA). After being blocked with Tris-buffered saline containing 0.1% Tween-20 (TBST) and 5% bovine serum albumin (BSA), the membranes were incubated with primary antibodies at room temperature for 2 hours or at 4°C, then washed with TBST, followed by treatment with horseradish peroxidase (HRP)-conjugated goat anti-rabbit IgG secondary antibody at room temperature for another 1 h. The targeted protein bands were visualized using an enhanced chemiluminescence (ECL) plus system (Thermo Fisher Scientific). […]
Figure4 Inhibitory effects of SY-707 on the phosphorylation of FAK(A,B) Concentration-dependent inhibition of SY-707 on phosphorylation of FAK in T47D (A) and MCF-7 (B) cells. […] Cell lysates were analyzed by western blot analysis using specific antibodies against p-FAK, p-Pyk2, p-AKT and p-ERK respectively. […] Cell lysates were analyzed by western blot analysis using specific antibodies against p-IGF1R, p-STAT3, p-AKT and p-ERK respectively.

Tissue distribution = type: in vivo; conditions: SD rats, oral 15 mg/kg; except the uterus and spleen
Description: In addition, SY-707 also had good clearance parameters and oral bioavailability in these two species.
Supplementary Figure S1. The tissue distribution profile of SY-707 Tissue distribution of SY-707 in SD rats was measured after oral administration of SY-707 (15 mg/kg).

Chain of PYK2 (Q14289 whole entry): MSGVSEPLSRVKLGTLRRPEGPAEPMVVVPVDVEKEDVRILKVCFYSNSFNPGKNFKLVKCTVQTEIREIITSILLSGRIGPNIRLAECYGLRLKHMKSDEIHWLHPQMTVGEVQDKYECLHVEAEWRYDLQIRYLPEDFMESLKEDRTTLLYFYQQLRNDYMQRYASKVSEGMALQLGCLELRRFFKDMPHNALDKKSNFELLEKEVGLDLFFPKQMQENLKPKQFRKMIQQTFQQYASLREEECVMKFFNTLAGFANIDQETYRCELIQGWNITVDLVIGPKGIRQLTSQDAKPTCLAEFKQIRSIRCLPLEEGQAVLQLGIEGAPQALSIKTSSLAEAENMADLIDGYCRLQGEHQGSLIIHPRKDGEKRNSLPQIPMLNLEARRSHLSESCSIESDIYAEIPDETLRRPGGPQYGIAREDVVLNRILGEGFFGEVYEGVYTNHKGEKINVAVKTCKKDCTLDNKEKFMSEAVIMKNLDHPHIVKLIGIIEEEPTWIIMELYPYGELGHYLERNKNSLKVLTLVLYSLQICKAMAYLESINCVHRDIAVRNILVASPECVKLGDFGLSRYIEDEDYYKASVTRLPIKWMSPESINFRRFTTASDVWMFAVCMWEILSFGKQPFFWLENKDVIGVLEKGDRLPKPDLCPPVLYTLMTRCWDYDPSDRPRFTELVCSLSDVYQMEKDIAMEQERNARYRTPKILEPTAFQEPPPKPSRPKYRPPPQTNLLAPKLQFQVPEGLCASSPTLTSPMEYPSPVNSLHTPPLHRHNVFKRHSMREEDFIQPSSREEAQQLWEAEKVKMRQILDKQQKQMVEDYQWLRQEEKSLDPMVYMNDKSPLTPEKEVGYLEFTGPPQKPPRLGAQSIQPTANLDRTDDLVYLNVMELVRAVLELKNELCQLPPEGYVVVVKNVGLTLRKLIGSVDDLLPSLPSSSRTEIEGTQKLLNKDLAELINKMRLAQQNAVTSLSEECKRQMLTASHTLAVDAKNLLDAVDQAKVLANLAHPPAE
Chain of IRK (P06213 28-1382): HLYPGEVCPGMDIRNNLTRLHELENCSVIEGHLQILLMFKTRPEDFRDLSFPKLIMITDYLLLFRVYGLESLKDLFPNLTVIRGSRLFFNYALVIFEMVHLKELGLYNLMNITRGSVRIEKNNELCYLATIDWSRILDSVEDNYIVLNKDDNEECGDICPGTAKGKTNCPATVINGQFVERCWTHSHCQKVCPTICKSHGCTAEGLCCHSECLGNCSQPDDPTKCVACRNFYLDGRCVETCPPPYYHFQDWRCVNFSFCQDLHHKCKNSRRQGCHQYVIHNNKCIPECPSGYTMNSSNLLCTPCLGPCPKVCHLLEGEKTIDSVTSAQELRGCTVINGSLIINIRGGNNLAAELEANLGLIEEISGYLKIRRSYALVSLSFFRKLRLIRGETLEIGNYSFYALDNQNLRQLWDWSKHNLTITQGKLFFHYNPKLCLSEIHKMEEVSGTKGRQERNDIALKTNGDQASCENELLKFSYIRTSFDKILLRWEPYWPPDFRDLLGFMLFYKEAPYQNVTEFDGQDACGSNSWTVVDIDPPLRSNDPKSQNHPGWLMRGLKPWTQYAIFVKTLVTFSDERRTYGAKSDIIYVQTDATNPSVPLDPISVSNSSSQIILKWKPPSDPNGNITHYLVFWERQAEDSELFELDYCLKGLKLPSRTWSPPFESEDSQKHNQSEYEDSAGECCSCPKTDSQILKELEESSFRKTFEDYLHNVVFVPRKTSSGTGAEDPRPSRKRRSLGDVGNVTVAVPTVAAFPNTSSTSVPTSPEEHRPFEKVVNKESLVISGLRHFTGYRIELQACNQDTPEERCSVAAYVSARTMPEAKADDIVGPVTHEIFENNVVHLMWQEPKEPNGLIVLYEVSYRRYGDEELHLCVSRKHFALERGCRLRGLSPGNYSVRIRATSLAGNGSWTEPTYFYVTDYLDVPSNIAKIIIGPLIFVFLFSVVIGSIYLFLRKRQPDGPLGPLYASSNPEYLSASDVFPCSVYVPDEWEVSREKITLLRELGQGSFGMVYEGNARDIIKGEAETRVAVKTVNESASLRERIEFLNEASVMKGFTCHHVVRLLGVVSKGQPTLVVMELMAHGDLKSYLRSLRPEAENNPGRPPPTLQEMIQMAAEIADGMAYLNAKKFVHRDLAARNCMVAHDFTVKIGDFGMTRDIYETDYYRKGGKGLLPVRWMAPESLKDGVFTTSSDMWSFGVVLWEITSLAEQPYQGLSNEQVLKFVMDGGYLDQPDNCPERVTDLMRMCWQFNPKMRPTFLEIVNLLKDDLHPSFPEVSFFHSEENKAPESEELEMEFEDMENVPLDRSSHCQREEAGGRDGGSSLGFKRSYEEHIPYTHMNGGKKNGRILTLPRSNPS
Chain of FAK (Q05397 whole entry): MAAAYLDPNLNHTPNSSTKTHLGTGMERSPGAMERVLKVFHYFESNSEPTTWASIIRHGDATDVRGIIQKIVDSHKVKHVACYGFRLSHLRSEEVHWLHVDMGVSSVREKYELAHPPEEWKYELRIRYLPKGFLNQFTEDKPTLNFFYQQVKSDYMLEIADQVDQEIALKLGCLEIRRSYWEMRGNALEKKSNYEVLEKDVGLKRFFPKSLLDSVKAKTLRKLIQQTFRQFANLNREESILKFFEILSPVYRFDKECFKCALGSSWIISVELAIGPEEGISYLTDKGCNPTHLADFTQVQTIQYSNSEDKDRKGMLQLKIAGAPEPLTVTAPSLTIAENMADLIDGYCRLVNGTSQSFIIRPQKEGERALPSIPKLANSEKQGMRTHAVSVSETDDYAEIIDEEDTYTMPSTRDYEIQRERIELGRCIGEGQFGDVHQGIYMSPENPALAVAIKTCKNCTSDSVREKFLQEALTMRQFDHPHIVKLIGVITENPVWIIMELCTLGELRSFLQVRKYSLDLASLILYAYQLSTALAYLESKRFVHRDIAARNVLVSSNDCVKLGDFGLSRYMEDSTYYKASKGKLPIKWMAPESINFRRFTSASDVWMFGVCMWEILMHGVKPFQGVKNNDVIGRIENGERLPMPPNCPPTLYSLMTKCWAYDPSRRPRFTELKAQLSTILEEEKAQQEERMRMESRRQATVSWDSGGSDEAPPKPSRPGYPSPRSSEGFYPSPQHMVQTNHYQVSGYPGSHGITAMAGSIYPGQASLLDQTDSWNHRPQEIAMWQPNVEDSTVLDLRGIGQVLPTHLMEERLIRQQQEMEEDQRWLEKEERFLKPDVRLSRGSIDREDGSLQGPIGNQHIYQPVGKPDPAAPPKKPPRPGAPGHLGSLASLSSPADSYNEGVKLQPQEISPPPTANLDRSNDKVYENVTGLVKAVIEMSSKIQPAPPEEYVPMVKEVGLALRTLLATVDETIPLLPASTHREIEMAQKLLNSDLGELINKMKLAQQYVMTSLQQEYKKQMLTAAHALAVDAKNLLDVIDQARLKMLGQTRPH
Chain of LTK (P29376 17-864): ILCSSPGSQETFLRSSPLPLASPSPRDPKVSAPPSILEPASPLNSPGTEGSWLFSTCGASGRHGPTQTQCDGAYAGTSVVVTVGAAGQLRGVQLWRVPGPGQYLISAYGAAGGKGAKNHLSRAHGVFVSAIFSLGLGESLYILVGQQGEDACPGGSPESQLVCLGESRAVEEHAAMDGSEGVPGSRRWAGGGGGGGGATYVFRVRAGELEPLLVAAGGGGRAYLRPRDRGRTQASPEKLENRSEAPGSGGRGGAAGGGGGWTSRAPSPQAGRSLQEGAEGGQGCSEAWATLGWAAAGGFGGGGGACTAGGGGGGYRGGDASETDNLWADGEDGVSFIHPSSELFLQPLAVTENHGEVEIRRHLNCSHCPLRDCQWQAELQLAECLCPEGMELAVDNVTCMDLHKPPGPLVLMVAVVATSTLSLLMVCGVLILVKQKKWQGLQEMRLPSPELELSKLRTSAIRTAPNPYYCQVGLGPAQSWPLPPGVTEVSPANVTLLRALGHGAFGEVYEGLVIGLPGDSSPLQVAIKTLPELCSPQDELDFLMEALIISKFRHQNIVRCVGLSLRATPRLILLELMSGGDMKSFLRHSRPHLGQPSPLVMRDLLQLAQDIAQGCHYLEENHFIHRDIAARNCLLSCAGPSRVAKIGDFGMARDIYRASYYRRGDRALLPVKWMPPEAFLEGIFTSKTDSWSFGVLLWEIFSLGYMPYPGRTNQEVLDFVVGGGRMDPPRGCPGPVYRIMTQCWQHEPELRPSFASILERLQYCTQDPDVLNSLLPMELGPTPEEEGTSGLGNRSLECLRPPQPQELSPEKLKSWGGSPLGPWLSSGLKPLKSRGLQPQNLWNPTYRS
Chain of FER (P16591 whole entry): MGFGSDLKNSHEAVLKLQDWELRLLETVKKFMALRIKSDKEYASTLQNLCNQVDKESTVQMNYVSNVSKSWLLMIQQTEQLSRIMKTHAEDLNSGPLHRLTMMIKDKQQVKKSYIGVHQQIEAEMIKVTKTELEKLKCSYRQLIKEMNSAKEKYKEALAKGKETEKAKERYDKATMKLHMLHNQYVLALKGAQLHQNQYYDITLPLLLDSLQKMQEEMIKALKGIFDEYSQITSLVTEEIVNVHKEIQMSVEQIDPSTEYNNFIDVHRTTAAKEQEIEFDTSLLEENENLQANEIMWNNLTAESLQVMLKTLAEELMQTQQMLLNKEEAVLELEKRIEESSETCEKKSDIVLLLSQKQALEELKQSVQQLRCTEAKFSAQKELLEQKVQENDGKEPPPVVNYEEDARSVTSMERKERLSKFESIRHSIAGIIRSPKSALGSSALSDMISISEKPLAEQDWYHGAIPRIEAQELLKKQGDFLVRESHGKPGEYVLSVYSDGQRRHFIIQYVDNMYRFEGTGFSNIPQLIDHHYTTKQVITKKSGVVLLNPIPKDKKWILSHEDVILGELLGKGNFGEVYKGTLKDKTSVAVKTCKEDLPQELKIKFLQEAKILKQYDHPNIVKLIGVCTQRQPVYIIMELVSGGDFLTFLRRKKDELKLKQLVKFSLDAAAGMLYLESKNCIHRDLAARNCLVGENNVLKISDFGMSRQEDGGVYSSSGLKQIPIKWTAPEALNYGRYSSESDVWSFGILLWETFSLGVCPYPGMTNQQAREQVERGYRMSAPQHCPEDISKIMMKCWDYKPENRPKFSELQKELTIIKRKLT

For `COc1cc(N2CCC(N3CCN(C)CC3)CC2)ccc1Nc1nc2c(c(Nc3ccccc3S(=O)(=O)NC(C)C)n1)CCN2` [SY-707, N-isopropyl-2-((2-((2-methoxy-4-(4-(4-methylpiperazin-1-yl)piperidin-1-yl)phenyl)amino)-6,7-dihydro-5H-pyrrolo[2,3-d]pyrimidin-4-yl)amino)benzenesulfonamide], the IC50 (FAK) was 1.6 ± 0.5 nM, the IC50 (ACK) was 28.7 ± 3.5 nM and the IC50 (ALK) was 2.4 nM. For the same compound, the IC50 (FER) was 52.3 ± 2.3 nM, the IC50 (FES) was 81.8 ± 19 nM and the IC50 (IGF1R) was 10.6 ± 0.58 nM. The IC50 (IRK) was 7.9 ± 0.3 nM, the IC50 (LTK) was 1.9 ± 0.18 nM and the IC50 (PYK2) was 2.4 ± 0.8 nM. For the same compound, the cell adhesion (MCF-7 cells) was “characteristically repressed”, the cell adhesion (T47D cells) was “characteristically repressed” and the “phosphorylation of FAK at Tyr397” value [1] was “dose-dependently suppressed”. The “phosphorylation of Pyk2 at Tyr402” value [2] was “dose-dependently suppressed” and the “distribution in rat tissues (AUC 0–24 h) relative to plasma” value (Tissue distribution) was “other organs had lower level of SY-707 than the plasma”.
